According to PMC2945410 (Journal of molecular biology, 2010):

Experiments:
E. coli YahA = biological target: T1, E. coli YahA (Escherichia coli, UniProt P21514); assay: p-nitrophenol release, absorbance at […] nm; assay type: biochemical; details: 10 mM bis-pNPP, 50 mM HEPES pH 7.5, 2 mM MnCl2
T1 sequence (P21514 73-362): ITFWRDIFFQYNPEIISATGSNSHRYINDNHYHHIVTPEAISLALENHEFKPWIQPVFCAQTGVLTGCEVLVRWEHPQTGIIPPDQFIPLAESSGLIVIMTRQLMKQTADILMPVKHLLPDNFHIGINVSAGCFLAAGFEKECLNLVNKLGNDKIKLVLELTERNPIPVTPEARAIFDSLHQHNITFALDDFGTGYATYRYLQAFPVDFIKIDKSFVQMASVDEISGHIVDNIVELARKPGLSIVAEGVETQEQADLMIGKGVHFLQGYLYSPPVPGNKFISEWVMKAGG

TBD1660 = biological target: T2, TBD1660 (Thiobacillus denitrificans, UniProt Q3SIB5); assay: p-nitrophenol release, absorbance at […] nm; assay type: biochemical; details: 10 mM bis-pNPP, 50 mM HEPES pH 7.5, 2 mM MnCl2
T2 sequence (Q3SIB5 443-698): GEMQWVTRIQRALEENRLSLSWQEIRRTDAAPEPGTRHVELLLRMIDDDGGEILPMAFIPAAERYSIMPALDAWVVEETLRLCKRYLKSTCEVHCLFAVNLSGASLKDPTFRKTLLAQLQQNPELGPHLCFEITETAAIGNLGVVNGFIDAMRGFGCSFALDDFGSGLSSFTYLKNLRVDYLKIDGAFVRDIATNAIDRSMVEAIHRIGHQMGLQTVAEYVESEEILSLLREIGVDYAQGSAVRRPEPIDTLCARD

O=[N+]([O-])c1ccc(OP(=O)(O)Oc2ccc([N+](=O)[O-])cc2)cc1 [bis-pNPP, bis-p-nitrophenyl phosphate]
p-nitrophenol release, absorbance at 410 nm (E. coli YahA): E. coli YahA and T. denitrificans TBD1660 showing the highest activities
p-nitrophenol release, absorbance at 410 nm (TBD1660): E. coli YahA and T. denitrificans TBD1660 showing the highest activities
